Data on one molecule can be found in paper PMC12696368, “Ancestral Chaperonins Provide the First Structural Glimpse into Early Multimeric Protein Evolution” (Molecular Biology and Evolution, 2025).

Test in all cases: phosphate release (BIOMOL GREEN), […]-60 °C
Common to all, as to format: biochemical
What all share (details): 0.5 mM ATP, 5 mM MgCl2, 150 mM KCl, 50 mM HEPES pH 7.4

One assay has as its target T1, E. coli GroEL (Escherichia coli, UniProt P0A6F5).
T1 construct: recombinant, expressed and purified as the ancestral proteins (C-terminal His-tag, E. coli BL21 (DE3)); no GroES; double ring of two seven-subunit rings

The target of another assay is T2, ACIII (synthetic construct, UniProt Z9ZN04QL74).
T2 construct: ancestral reconstruction, C-terminal His-tag, expressed in E. coli BL21 (DE3); eight-subunit double rings
T2 sequence (Z9ZN04QL74 1-518): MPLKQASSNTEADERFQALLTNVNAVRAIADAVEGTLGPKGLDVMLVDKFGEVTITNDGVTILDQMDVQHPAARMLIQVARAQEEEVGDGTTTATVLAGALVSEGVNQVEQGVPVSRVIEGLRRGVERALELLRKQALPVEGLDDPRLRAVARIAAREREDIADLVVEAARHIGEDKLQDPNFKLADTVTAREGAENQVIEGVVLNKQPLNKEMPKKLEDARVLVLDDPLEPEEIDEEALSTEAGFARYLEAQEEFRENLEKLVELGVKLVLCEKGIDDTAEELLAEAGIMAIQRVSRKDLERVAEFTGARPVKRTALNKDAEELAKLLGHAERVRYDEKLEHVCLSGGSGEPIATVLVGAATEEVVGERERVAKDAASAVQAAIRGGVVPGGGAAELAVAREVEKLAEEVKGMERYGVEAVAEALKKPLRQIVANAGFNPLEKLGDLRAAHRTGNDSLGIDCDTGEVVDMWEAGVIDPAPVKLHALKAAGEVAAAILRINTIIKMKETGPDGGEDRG

A further assay concerns the target T3, ACI (synthetic construct, UniProt Z9T0T8YL69).
T3 construct: ancestral reconstruction, C-terminal His-tag, expressed in E. coli BL21 (DE3); single heptameric ring

The next assay deals with T4, AFCB (synthetic construct, UniProt Z9BU06U866).
T4 construct: ancestral reconstruction, C-terminal His-tag, expressed in E. coli BL21 (DE3); 7-subunit double rings

T1 sequence (P0A6F5 2-548): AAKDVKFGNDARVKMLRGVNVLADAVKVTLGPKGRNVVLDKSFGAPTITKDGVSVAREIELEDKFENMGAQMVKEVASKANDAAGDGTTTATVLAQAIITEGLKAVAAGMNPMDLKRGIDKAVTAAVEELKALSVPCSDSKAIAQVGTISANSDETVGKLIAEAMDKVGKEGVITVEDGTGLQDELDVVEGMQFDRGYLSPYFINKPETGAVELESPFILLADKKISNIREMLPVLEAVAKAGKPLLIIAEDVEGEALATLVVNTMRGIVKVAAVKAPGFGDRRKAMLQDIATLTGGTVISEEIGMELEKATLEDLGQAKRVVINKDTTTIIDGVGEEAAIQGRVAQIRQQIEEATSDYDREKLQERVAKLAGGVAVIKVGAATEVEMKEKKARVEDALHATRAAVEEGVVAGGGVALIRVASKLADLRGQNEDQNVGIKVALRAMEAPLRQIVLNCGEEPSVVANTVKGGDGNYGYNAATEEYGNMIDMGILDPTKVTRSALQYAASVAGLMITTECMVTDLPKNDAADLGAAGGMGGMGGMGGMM

On to `Nc1ncnc2c1ncn2[C@@H]1O[C@H](COP(=O)(O)OP(=O)(O)OP(=O)(O)O)[C@@H](O)[C@H]1O` [ATP], for which the “phosphate release (BIOMOL GREEN), 30-60 °C” value is “E. coli GroEL, ACI and ACIII exhibited similar hydrolysis patterns” on E. coli GroEL; “E. coli GroEL, ACI and ACIII exhibited similar hydrolysis patterns” on ACIII; “E. coli GroEL, ACI and ACIII exhibited similar hydrolysis patterns” at ACI; “showed the highest rate of ATP hydrolysis, followed by AFCB” on AFCB.
